# Measurements: PMC9573548, “Metabolic Profiling by GC-MS, In Vitro Biological Potential, and In Silico Molecular Docking Studies of Verbena officinalis” (Molecules, 2022)
# Tested on: T1, urease
# T1 construct: jack bean is only the usual preparation; docking model 1E9Z (Helicobacter pylori) is not the assayed enzyme
# Assay: indophenol (phenol-hypochlorite) ammonia assay, […] nm
# Assay type: biochemical
# Details: urea substrate (2.25% solution), phosphate buffer pH 7.0, room temperature, 15 min preincubation
smiles,measurement,value
NC(=O)NO [hydroxy urea],Urease IC50,9.8 ± 1.20 µg/mL
